We go through 2 compounds from patent US8475851B2, “Preparations with wood extracts of locust trees” (Symrise AG, priority 2011, dated 2013).

The assay relates to 3T3-L1 cells. Put plainly: Adipogenesis assay. The class given is cell-based, mouse. To be noted: for Adipogenesis inhibition, result in words: concentration tested. Here is the method:
3T3-L1 cells (mouse embryonic fibroblast-like adipocyte cell line) are seeded in a 48-well plate with collagen I coating at a concentration of 3×10^4 cells/well. After culture for 72 h at 37° C. and 5% CO2 in DMEM (Dulbecco's Modified Eagle's Medium), enriched with 10% calf serum, various concentrations of the test samples are added to DMEM, enriched with 10% fetal calf serum supplemented with 1 μg/ml insulin, 0.25 μM dexamethasone and 0.5 mM IBMX (3-isobutyl-1-methylxanthine), and incubated for a further 48 h. The medium is changed, applying DMEM, enriched with 10% fetal calf serum supplemented with 1 μg/ml insulin. After further cultivation for 48 h, the medium is changed again, applying DMEM enriched with 10% fetal calf serum.
After incubation for a further 72 h, the intracellularly stored lipids are quantified as a measure for the differentiation of the cells, by measuring the fluorescence after staining the lipids with the fluorescent dye Nile Red.
The inhibition of adipogenesis in the presence of the test samples is calculated from the following equation:
[formula] with RFU test substance=relative fluorescence units of the wells with test substance and with cells RFU control=relative fluorescence units of the wells without test substance, but with cells RFU control without cells=relative fluorescence units of the wells without test substance and without cells.
IC50 is calculated from the adipogenesis inhibition [%] in a series of dilutions of samples tested. This is the concentration at which adipogenesis is inhibited 50%.

As for `O=C1c2ccc(O)cc2OC(c2ccc(O)c(O)c2)C1O` (stereo not shown) [Fustin, 3,3′,4′,7-tetrahydroxyflavanone], the “Adipogenesis inhibition, result in words” value was “do not show any activity”. For the same compound, the Adipogenesis inhibition result (test concentration 0.0005 % (corresponds to content 1.5 wt. % in BIO781/2)) is recorded as “No inhibition”.
As to `O=c1c(O)c(-c2ccc(O)c(O)c2)oc2cc(O)ccc12` [Fisetin, 3,3′,4′,7-tetrahydroxyflavone], the “Adipogenesis inhibition, result in words” value was “do not show any activity”. For the same compound, for the setting “test concentration 0.0003 % (corresponds to content 1.0 wt. % in BIO781/2)”, the Adipogenesis inhibition entry was “No inhibition”.
